Measurements published in PMC6631596, “Analgesic and Anti-Inflammatory Activities of Quercetin-3-methoxy-4′-glucosyl-7-glucoside Isolated from Indian Medicinal Plant Melothria heterophylla” (Medicines, 2019).

How the values were obtained:
[1] = target: T1, COX-2 (Homo sapiens, UniProt P35354); assay: Cayman COX inhibitor screening assay (prostaglandin ELISA); type: biochemical
T1 construct: gene PTGS2; human recombinant COX-2
T1 sequence (P35354 18-604): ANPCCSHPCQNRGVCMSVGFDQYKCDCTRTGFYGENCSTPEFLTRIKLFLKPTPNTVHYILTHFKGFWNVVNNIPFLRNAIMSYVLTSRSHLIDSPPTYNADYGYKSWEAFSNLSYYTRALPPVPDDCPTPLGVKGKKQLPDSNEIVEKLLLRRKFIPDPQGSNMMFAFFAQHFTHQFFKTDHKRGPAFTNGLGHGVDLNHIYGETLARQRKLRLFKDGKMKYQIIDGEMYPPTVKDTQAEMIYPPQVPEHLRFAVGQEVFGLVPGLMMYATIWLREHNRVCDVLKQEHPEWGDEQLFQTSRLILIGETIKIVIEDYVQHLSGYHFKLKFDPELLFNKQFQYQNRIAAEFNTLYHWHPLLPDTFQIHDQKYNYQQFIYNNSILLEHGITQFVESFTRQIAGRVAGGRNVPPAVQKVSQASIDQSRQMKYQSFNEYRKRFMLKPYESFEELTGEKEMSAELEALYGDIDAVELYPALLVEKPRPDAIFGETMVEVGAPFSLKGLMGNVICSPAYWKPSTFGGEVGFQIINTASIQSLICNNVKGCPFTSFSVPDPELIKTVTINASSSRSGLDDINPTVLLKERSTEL

[2] = target: T2, COX-1 (Ovis aries, UniProt P05979); assay: as above; type: biochemical
T2 construct: gene PTGS1; ovine COX-1
T2 sequence (P05979 25-600): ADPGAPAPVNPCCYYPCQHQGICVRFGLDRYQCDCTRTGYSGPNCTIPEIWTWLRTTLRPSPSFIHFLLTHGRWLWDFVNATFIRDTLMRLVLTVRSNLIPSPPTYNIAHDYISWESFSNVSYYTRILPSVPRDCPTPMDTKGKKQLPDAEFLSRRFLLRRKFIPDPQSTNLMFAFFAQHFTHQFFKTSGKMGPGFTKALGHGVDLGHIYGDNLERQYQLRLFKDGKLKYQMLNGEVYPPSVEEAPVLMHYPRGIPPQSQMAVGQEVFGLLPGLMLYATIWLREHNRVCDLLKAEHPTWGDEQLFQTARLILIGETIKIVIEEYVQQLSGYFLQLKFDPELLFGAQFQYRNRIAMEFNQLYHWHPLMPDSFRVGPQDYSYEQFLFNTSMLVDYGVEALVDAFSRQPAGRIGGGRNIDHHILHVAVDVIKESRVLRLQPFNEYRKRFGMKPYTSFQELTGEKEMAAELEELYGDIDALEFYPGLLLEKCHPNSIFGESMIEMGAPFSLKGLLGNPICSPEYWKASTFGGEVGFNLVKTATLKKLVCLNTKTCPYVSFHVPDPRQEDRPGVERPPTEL

IC50 [1]: 3.11 µM | IC50 [2]: 4.31 µM
Structure (SMILES): COc1c(-c2ccc(O[C@@H]3O[C@H](CO)[C@@H](O)[C@H](O)[C@H]3O)c(O)c2)oc2cc(O[C@@H]3O[C@H](CO)[C@@H](O)[C@H](O)[C@H]3O)cc(O)c2c1=O [quercetin-3-methoxy-4′-glucosyl-7-glucoside]
